Measurements published in US20260102484A1, “ADJUVANTS FOR ENHANCING THE IMMUNE RESPONSE” (priority 2022, published 2026).

Key:
[1] = test system: antigen-specific (RBD peptide #9) Proliferative T cell response; design: species or system Mice; settings: mouse, in vivo
[2] = test system: cytokine response to RBD Peptide #9 (IL6, IFNg, TNF, IL17, IL 10); design: species or system Mice; settings: mouse, in vivo
[3] = test system: myeloid (GR1+CD11b+) cells and lymphoid (CD8+) cells; assay: FACS analysis of myeloid and lymphoid cells at higher DPCA doses; type: in vivo, mice
Method: To explore what is happening at higher DPCA doses and why they may be inhibitory, we tested the effects of different concentrations of DPCA on myeloid (GR1+CD11b+) cells and lymphoid (CD8+) cells. […] Also, the number of GR1+CD11b+myeloid cells is much higher. Within this population of myeloid cells are cells that can suppress T cells.
Additionally, cells were immunized with 50 ug of DPCA and compared to an untreated control. The number of cell in each was determined by FACS analysis. […] (See upper panels showing scatter plots with an increased number of cells in treated cells). An analysis of myeloid cell markers GR1 and CD11b was determined in the control and DPCA treated cells. […] (See lower panels)

[4] = test system: Naïve, central memory, and effector T cells (CD4 and CD8); assay: Numbers of naive, central memory and effector memory T cells from lymph nodes and spleen; type: in vivo; settings: peptide 9 and 10 ug or 25 ug of DPCA, FIG. 6
Method: Next, three populations of T cells (Naïve, central memory, and effector T cells) from lymph nodes and spleens were treated with peptide 9 and 10 ug of DPCA or 25 ug of DPCA. An untreated control group and a control group treated with PBS were also tested.

[5] = test system: splenic T cells; assay: Recall response of splenic T cells to peptide #5-palmitic acid, CTFR proliferation dye and FACS; type: in vivo, Mice; settings: immunized subcutaneously with peptide #5-palmitic acid CFA + 10 ug; 14 days later; FIG. 7
Method: Mice were now immunized with peptide 5 and T cells analyzed for proliferation and by FACS analysis. (FIG. 7) Mice were immunized subcutaneously with peptide #5-palmitic acid CFA mixture with and without 10 ug of 1,4-DPCA. 14 days later, splenic T cells were isolated and co-cultured with irradiated feeders in a ratio of 400k:100k to assess recall responses to peptide #5-palmitic acid. T cells from unimmunized mice were used as control. Only T cells were stained with CTFR proliferation dye in order to ensure detection of specific T cell responses.
In upper FIG. 7 is the FACS flow cytometry plot, where the labelled cells are T cells. […] Below this, is the analyzed proliferation data, where the yellow line is immunized+10 ug of DPCA was given to mice, the grey line is immunized only, the orange line is control, unimmunized but stimulated in culture, and the blue line is control, unstimulated in culture.

In the case of `O=C(O)c1c[nH]c2c(ccc3cccnc32)c1=O` [1,4-DPCA, 1,4-dihydrophenonthrolin-4-one-3-carboxylic acid], the “antigen-specific (RBD peptide #9) Proliferative T cell response” value [1] is reported as “enhances”, the IFNg response [2] is reported as “most dramatically affected” and the “cytokine response (IL6, IFNg, TNF, IL17, and IL 10)” value [2] is reported as “dose-dependent”. For the same molecule, the “number of large cells (FACS scatter plots)” value ([3]; 50 ug of DPCA vs untreated control, FIG. 5) was “increase number of large cells”, the “myeloid cell markers GR1 and CD11b” value ([3]; DPCA treated vs untreated control, FIG. 5 lower panels) was “large population of myeloid cells” and the “relationship between lymphoid and myeloid cells” value ([3]; higher DPCA dosage, FIG. 4) was “Inverse relationship”. For the same molecule, the “number of CD8+T cells” value ([3]; higher DPCA doses, FIG. 4) was “reduced”, the “number of GR1+CD11b+myeloid cells” value ([3]; higher DPCA doses, FIG. 4) was “much higher” and the “numbers of memory cells (CD4 and CD8)” value [4] was “increased numbers”. For the same molecule, the “numbers of naïve cells (CD4 and CD8)” value [4] was “lower numbers” and the “T cell proliferation (FACS flow cytometry plot)” value [5] was “increased proliferation”.
